Data published in patent US11439646B2, “Anti-proliferative agents for treating PAH” (Pfizer Inc., priority 2016, dated 2022).
Where two headings read alike, the source gives them in different places.

Key:
Assay type in all cases: cell-based
human primary PAAFs = assay: BrdU cell proliferation assay, human primary PAAFs; conditions: serum, average of 3, FIG. 1c, read-out: IC50, serum-induced proliferation of human primary PAAFs
Experimental: (§1) Cell proliferation assay. Primary PASMCs and PAAFs from normal human subjects (ScienCell Research Laboratories, San Diego, Calif., USA) and rat primary PASMCs (Cell Applications, San Diego, Calif., USA) were plated in CellBIND® 96-well plates in Dulbecco's modification of Eagle's medium (DMEM) containing 5% fetal bovine serum (FBS), and serum-starved for 24 h in DMEM containing 0.1% FBS. Cells were first pre-incubated with different concentrations of palbociclib (in triplicates) for 30 minutes, and then 30 ng/ml PDGF-BB or 5% FBS was added to stimulate cell proliferation. Cells were maintained for 48 h before the proliferation rate was evaluated using the Cell Proliferation ELISA BrdU (bromodeoxyuridine) Luminescence Kit (Roche Diagnostics, Mannheim, Germany). BrdU was added to the medium 16 h before the quantification of BrdU incorporation. This procedure was use to generate data as presented in at least FIGS. 1a, 1b, 1c, and 1d. IC50 values were calculated for any given inhibitor by determining the concentration of compound needed to inhibit 50% of the response applied to the system. IC50 values were derived from the four parameter logistic equation which was fit to the compound concentration response data.

hPAAF = assay: EdU cell proliferation assay, hPAAF; conditions: Homo sapiens, 5% FBS, N = 6, FIG. 1f, read-out: hPAAF IC50 (nM), inhibition of proliferation
Experimental: (§2) Alternatively, rather than using BrdU, EdU (5-ethynyl-2′-deoxyuridine) can be used. Cells were first pre-incubated with different concentrations of the CDK inhibitor for 30 minutes, and then 5% FBS was added to stimulate cell proliferation. Cells were maintained for 24 h before the proliferation rate was evaluated using EDU Click-iT EdU Alexa Fluor® 647 HCS Assay (Thermofisher Scientific, USA). EdU was added to the medium 16 h before the quantification of EdU incorporation. Proliferation was quantified by scanning the 96-well plates using automated high content imaging platform equipped with appropriate fluorescence microscopic filters for DAPI (4′,6-Diamidino-2-Phenylindole) or Hoechst stain and Cyanine5 dyes as part of the Click-iT assay. Proliferating EdU positive cells detected at Cyanine5 were quantified and normalized to total cell number per well where the total cell number per cell was identified by DAPI or Hoechst signal. The % effect was then calculated:
(§3) The average (avg) amount (amt) of proliferating cells per concentration of CDK inhibitor with FBS present.
(§4) The minimum amount of proliferation (min amt of prolif'n) is based on cell numbers in the wells where FBS is not added and no CDK inhibitor is present.
(§5) The maximum amount of proliferation (max amt of prolif'n) is based on cell numbers in the wells where FBS is added and no CDK inhibitor is present.

human primary PASMCs = assay: BrdU cell proliferation assay, human primary PASMCs; conditions: PASMC
Experimental: as §1

hPASMC = assay: EdU cell proliferation assay, hPASMC; conditions: Homo sapiens, 5% FBS, N = 6, FIG. 1e, read-out: hPASMC IC50 (nM), inhibition of proliferation
Experimental: as §2, §3, §4, §5

rat primary PASMCs = assay: BrdU cell proliferation assay, rat primary PASMCs; conditions: PASMC, 24 h, 5% FBS, average of 3, FIG. 1d, read-out: IC50, proliferation of rat primary PASMCs induced by 5% FBS
Experimental: as §1

rPASMC = assay: EdU cell proliferation assay, rPASMC; conditions: Rattus norvegicus, 5% FBS, N = 6, FIG. 1g, read-out: rPASMC IC50 (nM), inhibition of proliferation
Experimental: as §2, §3, §4, §5

phospho-Rb (Ser807/811) = assay: In-cell western analysis of Rb phosphorylation in human PASMCs; conditions: for IC50: PASMC
Experimental: In-cell western analysis. Primary PASMCs from normal human subjects were cultured and serum-starved as described above. Cells were first pre-incubated with different concentrations of palbociclib for 60 minutes, and then either 5% FBS or 10% FBS or 30 ng/ml PDGF-BB was added to stimulate cell proliferation and Rb phosphorylation. The effect of Palbociclib on Rb phosphorylation was evaluated 24 h later, using in-cell western assay according to the manufacturer's instructions (Li-Cor Biosciences, Lincoln, Nebr., USA). Phosphorylated Rb was measured using a rabbit monoclonal antibody anti-phospho-Rb (Ser807/811) (Cell Signaling Technology, Inc., Danvers, Mass., USA), followed by detection with IRDye 800CW infrared fluorescent dye-labeled goat anti-rabbit secondary antibody. Actin levels were measured using mouse anti-actin monoclonal antibodies (pan Ab-5) (Fisher Scientific Pittsburgh, Pa., USA; Sigma Aldrich, St. Louis, Mo., USA), and followed by detection with IRDye 680RD-labeled goat anti-mouse secondary antibody. See FIG. 2a where 5% FBS was used, FIG. 2b where PDGF-BB was used, and FIG. 2c where 10% FBS was used.

IC50 (phospho-Rb (Ser807/811); Homo sapiens, 10% FBS, N = 6, FIG. 2c, read-out: Average IC50 (nM), inhibition of phosphorylation of Rb in hPASMCs): 64.2 nM
IC50 (phospho-Rb (Ser807/811); human PASMCs, 5% FBS, FIG. 2a, read-out: IC50, serum-induced Rb phosphorylation): 14.9 nM
IC50 (phospho-Rb (Ser807/811); human PASMCs, PDGF-BB, FIG. 2b, read-out: IC50, PDGF-BB induced Rb phosphorylation): 5.2 nM
Structure (SMILES): CC(=O)c1c(C)c2cnc(Nc3ccc(N4CCNCC4)cn3)nc2n(C2CCCC2)c1=O [Palbociclib, 6-acetyl-8-cyclopentyl-5-methyl-2-{[5-(piperazin-1-yl)pyridin-2yl]amino}pyrido[2,3-d]pyrimidin-7(8H)-one]
IC50 (human primary PAAFs): 21.6 nM
IC50 (hPAAF): 0.4 nM
IC50 (human primary PASMCs; 30 ng/ml PDGF-BB, average of 3, FIG. 1a, read-out: IC50, PDGF-BB induced proliferation of human primary PASMCs): 7.4 nM
IC50 (human primary PASMCs; 5% FBS, average of 3, FIG. 1b, read-out: IC50, proliferation of human primary PASMCs induced by 5% FBS): 7.4 nM
IC50 (hPASMC): 0.3 nM
IC50 (rat primary PASMCs): 27.4 nM
IC50 (rPASMC): 19 nM
effect on total Rb levels (phospho-Rb (Ser807/811); human primary PASMCs, 5% FBS or PDGF-BB): little effect
